How the values were obtained:
NCI-N87 cells [1] = experiment: In vitro cytotoxicity, 6 day assay, Cell Titer-Glo (Example 2); assay type: cell-based; conditions: Homo sapiens, 144 h; NCI-N87, 6 day assay; antibody concentrations except for the free drug
Experimental: (§1) NCI-N87 cells, which overexpress HER2, were used as targets for in vitro cytotoxicity in a 6 day assay.
The HER2-positive breast carcinoma cell line, NCI-N87, was obtained from ATCC and maintained in RPMI-1640 medium (Cellgro) supplemented with 10% fetal bovine serum (Invitrogen) and Glutamax (Invitrogen). 24 h prior to plating, cells were passaged to ensure log-phase growth. On the day of plating, 5000 cells/well were seeded onto 96-well plates in 90 μL normal growth medium supplemented with 10 IU penicillin and 10 μg/mL streptomycin (Cellgro). Cells were treated at various concentrations with 10 μL of diluted analytes, and the plates were incubated at 37° C. in an atmosphere of 5% CO2. After 6 d, 100 μL/well of Cell Titer-Glo reagent (Promega) was added, and luminescence was measured using a Molecular Devices SpectraMax M5 plate reader. GraphPad Prism software was used for data analysis, including IC50 calculations.

NCI-N87 cells [2] = experiment: In vitro cytotoxicity, 6 day assay, Cell Titer-Glo (Example 1); conditions: Homo sapiens, NCI-N87, 144 h
Experimental: as §1
24 h prior to plating, cells were passaged to ensure log-phase growth. On the day of plating, 5000 cells/well were seeded onto 96-well plates in 90 μL normal growth medium supplemented with 10 IU penicillin and 10 μg/mL streptomycin (Cellgro). Cells were treated at various concentrations with 10 μL of diluted analytes, and the plates were incubated at 37° C. in an atmosphere of 5% CO2. After 6 d, 100 μL/well of Cell Titer-Glo reagent (Promega, Madison, WI) was added, and luminescence was measured using a Molecular Devices SpectraMax M5 plate reader. GraphPad Prism software was used for data analysis, including IC50 calculations.

NCI-N87 cells [3] = experiment: In vitro cytotoxicity, 6 d, Cell Titer-Glo (Example 5); assay type: cell-based; conditions: Homo sapiens, 144 h; NCI-N87, 6 d
Experimental: The HER2-positive gastric carcinoma cell line, NCI-N87, was obtained from ATCC and maintained in RPMI-1640 medium (Cellgro) supplemented with 10% fetal bovine serum (Invitrogen) and Glutamax (Invitrogen). 24 h prior to plating, cells were passaged to ensure log-phase growth. On the day of plating, 5000 cells/well were seeded onto 96-well plates in 90 μL normal growth medium supplemented with 10 IU penicillin and 10 μg/mL streptomycin (Cellgro). […] After 6 d, 100 μL/well of Cell Titer-Glo reagent (Promega) was added, and luminescence was measured using a Molecular Devices SpectraMax M5 plate reader. GraphPad Prism software was used for data analysis.

## COc1cc2cc(c1Cl)N(C)C(=O)C[C@H](OC(=O)[C@H](C)N(C)C(C)=O)[C@]1(C)O[C@H]1[C@H](C)[C@@H]1C[C@@](O)(NC(=O)O1)[C@H](OC)/C=C/C=C(\C)C2 [free maytansine, maytansine]
NCI-N87 cells [1]
  IC50: 0.25 nM
NCI-N87 cells [2]
  IC50: 0.214 nM
NCI-N87 cells [3]
  IC50: 0.35 nM
